System: Rattus norvegicus
Test: Antiinflammatory activity against collagen-induced arthritis in po dosed Lewis rat model assessed as inhibition of paw swelling
Assay type: functional
Conditions: not given

Compound	ED50 [mg/kg]
Cc1ccc(C(=O)NC2CC2)cc1-c1ccc2c(O[C@@H](C)C(F)(F)F)nncc2c1	0.04

System: Rattus norvegicus
Test: Antiinflammatory activity against collagen-induced arthritis Lewis rat model assessed as area under the paw swelling curve at 0.04 mg/kg, po relative to control
Assay type: functional, organism-based
Parameters: dose 0.04 mg/kg
Conditions: not given

Compound	AUC [ng·h/mL]
Cc1ccc(C(=O)NC2CC2)cc1-c1ccc2c(O[C@@H](C)C(F)(F)F)nncc2c1	51.1

Target: Tyrosine-protein kinase Lyn (Homo sapiens, UniProt P07948)
Test: Inhibition of Lyn
Conditions: not given

Chain of Tyrosine-protein kinase Lyn (P07948 whole entry): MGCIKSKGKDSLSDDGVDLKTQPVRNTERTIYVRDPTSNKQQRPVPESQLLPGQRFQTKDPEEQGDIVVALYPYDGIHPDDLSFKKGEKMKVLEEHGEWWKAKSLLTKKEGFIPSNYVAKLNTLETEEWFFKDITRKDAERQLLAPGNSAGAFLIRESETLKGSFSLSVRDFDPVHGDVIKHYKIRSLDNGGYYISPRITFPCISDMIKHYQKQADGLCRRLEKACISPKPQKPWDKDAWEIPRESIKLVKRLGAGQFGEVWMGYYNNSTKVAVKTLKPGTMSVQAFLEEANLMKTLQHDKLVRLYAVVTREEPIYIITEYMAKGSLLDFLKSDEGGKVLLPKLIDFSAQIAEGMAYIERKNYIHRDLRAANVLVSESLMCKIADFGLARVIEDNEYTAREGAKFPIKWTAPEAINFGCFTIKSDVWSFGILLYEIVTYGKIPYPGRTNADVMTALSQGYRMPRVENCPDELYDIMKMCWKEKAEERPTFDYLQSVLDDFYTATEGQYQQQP

Compound	IC50 [µM]
Cc1ccc(C(=O)NC2CC2)cc1-c1ccc2c(O[C@@H](C)C(F)(F)F)nncc2c1	0.954

System: not listed separately
Test: Clearance in Sprague-Dawley rat 1 mg/kg, iv
Assay type: ADME, organism-based
Parameters: dose 1 mg/kg, route intravenous
Conditions: in vivo

Compound	clearance [L/h/kg]
Cc1ccc(C(=O)NC2CC2)cc1-c1ccc2c(N3CCOCC3)nncc2c1	1.7

System: not listed separately
Test: Volume of distribution at steady state in Sprague-Dawley rat 1 mg/kg, iv
Assay type: ADME, organism-based
Parameters: dose 1 mg/kg, route intravenous
Conditions: in vivo, read-out: Vdss

Compound	Vd [L/kg]
Cc1ccc(C(=O)NC2CC2)cc1-c1ccc2c(N3CCOCC3)nncc2c1	3.5

System: not listed separately
Test: Half life in Sprague-Dawley rat 1 mg/kg, iv
Assay type: ADME, organism-based
Parameters: dose 1 mg/kg, route intravenous
Conditions: in vivo

Compound	half-life [h]
Cc1ccc(C(=O)NC2CC2)cc1-c1ccc2c(N3CCOCC3)nncc2c1	4.1

System: not listed separately
Test: AUC (0 to infinity) in Sprague-Dawley rat 1 mg/kg, po
Assay type: ADME, organism-based
Parameters: time infinity, dose 1 mg/kg, route oral
Conditions: plasma

Compound	AUC(0-inf) [µg·h/mL]
Cc1ccc(C(=O)NC2CC2)cc1-c1ccc2c(N3CCOCC3)nncc2c1	0.124

System: not listed separately
Test: Oral bioavailability in Sprague-Dawley rat 1 mg/kg
Assay type: ADME, organism-based
Conditions: in vivo

Compound	bioavailability [%]
Cc1ccc(C(=O)NC2CC2)cc1-c1ccc2c(N3CCOCC3)nncc2c1	22

Target: Mast/stem cell growth factor receptor Kit (Homo sapiens, UniProt P10721)
Test: Inhibition of cKit
Conditions: not given

Chain of Mast/stem cell growth factor receptor Kit (P10721 whole entry): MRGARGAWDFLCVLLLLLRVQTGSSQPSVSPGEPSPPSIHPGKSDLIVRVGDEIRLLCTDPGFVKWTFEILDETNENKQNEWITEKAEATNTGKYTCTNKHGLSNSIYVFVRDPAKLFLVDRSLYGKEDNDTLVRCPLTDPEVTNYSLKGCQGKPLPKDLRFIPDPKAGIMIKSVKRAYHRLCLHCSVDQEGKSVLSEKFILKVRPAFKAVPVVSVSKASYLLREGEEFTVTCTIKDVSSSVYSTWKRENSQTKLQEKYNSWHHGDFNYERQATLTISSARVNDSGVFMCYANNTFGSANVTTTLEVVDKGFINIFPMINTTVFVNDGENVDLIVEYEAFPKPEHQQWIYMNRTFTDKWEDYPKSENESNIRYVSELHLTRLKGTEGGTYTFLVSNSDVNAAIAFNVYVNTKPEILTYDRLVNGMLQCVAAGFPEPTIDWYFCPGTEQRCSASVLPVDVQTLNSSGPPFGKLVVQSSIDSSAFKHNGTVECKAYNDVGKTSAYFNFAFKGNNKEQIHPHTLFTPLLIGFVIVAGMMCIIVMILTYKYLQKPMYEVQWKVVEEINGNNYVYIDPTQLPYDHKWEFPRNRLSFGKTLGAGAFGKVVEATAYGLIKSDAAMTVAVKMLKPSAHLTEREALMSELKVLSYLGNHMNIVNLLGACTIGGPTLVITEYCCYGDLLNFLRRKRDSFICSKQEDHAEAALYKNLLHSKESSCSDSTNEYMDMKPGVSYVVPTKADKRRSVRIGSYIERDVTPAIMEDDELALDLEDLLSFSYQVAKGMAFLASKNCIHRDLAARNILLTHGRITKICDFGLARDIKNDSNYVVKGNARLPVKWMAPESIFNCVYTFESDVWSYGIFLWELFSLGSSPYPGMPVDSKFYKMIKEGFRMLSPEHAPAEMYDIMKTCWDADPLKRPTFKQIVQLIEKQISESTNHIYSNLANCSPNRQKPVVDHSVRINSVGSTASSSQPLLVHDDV

Compound	IC50 [µM]
Cc1ccc(C(=O)NC2CC2)cc1-c1ccc2c(OC(C)C)nncc2c1	0.421
Cc1ccc(C(=O)NC2CC2)cc1-c1ccc2c(-c3ccccc3)nncc2c1	0.149
Cc1ccc(C(=O)NC2CC2)cc1-c1ccc2c(NCCN3CCOCC3)nncc2c1	1.06
Cc1ccc(C(=O)NC2CC2)cc1-c1ccc2c(N3CCOCC3)nncc2c1	0.529
Cc1ccc(C(=O)NC2CC2)cc1-c1ccc2c(O[C@@H](C)C(F)(F)F)nncc2c1	1.06

Target: Mitogen-activated protein kinase 8 (Homo sapiens, UniProt P45983)
Test: Inhibition of JNK1
Conditions: not given

Chain of Mitogen-activated protein kinase 8 (P45983 whole entry): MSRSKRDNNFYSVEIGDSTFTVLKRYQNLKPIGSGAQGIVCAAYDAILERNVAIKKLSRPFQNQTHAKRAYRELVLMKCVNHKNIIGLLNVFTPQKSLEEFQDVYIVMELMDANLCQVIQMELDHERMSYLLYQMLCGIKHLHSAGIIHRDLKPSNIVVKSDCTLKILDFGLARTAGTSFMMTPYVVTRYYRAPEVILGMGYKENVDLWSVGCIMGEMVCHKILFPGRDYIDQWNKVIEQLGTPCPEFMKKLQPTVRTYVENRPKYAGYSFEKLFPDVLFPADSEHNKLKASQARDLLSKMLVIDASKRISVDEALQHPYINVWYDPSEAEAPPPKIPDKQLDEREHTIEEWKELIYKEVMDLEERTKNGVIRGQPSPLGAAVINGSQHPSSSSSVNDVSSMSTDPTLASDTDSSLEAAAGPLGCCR

Compound	IC50 [µM]
Cc1ccc(C(=O)NC2CC2)cc1-c1ccc2c(OC(C)C)nncc2c1	> 10
Cc1ccc(C(=O)NC2CC2)cc1-c1ccc2c(-c3ccccc3)nncc2c1	> 10
Cc1ccc(C(=O)NC2CC2)cc1-c1ccc2c(NCCN3CCOCC3)nncc2c1	> 10
Cc1ccc(C(=O)NC2CC2)cc1-c1ccc2c(N3CCOCC3)nncc2c1	> 10
Cc1ccc(C(=O)NC2CC2)cc1-c1ccc2c(O[C@@H](C)C(F)(F)F)nncc2c1	> 10

Target: Mitogen-activated protein kinase 9 (Homo sapiens, UniProt P45984)
Test: Inhibition of JNK2
Conditions: not given

Chain of Mitogen-activated protein kinase 9 (P45984 whole entry): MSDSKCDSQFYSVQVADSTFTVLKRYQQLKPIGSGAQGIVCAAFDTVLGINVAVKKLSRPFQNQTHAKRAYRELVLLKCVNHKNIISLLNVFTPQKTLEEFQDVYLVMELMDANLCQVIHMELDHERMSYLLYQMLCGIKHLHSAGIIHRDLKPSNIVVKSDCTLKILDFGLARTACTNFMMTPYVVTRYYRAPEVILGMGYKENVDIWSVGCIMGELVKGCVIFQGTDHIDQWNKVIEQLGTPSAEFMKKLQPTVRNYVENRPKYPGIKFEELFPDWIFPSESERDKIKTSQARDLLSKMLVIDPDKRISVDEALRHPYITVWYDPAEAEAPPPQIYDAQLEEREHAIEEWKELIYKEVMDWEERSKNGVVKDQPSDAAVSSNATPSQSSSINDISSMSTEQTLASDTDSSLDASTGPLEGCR

Compound	IC50 [µM]
Cc1ccc(C(=O)NC2CC2)cc1-c1ccc2c(OC(C)C)nncc2c1	5.95
Cc1ccc(C(=O)NC2CC2)cc1-c1ccc2c(-c3ccccc3)nncc2c1	> 10
Cc1ccc(C(=O)NC2CC2)cc1-c1ccc2c(NCCN3CCOCC3)nncc2c1	> 10
Cc1ccc(C(=O)NC2CC2)cc1-c1ccc2c(N3CCOCC3)nncc2c1	9.69
Cc1ccc(C(=O)NC2CC2)cc1-c1ccc2c(O[C@@H](C)C(F)(F)F)nncc2c1	7.77

Target: Mitogen-activated protein kinase 10 (Homo sapiens, UniProt P53779)
Test: Inhibition of JNK3
Conditions: not given

Chain of Mitogen-activated protein kinase 10 (P53779 whole entry): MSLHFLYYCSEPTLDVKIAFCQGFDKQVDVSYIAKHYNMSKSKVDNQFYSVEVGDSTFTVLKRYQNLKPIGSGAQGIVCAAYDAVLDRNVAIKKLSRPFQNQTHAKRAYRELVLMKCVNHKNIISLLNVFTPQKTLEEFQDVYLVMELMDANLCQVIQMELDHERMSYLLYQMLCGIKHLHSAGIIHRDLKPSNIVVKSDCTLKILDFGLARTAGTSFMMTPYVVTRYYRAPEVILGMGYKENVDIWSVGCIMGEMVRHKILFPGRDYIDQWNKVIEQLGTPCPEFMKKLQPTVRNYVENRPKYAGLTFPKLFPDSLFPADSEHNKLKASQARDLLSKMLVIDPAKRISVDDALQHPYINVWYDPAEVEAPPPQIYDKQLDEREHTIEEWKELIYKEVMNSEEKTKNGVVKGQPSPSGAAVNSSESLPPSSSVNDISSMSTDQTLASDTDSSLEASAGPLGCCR

Compound	IC50 [µM]
Cc1ccc(C(=O)NC2CC2)cc1-c1ccc2c(OC(C)C)nncc2c1	> 10
Cc1ccc(C(=O)NC2CC2)cc1-c1ccc2c(-c3ccccc3)nncc2c1	> 10
Cc1ccc(C(=O)NC2CC2)cc1-c1ccc2c(NCCN3CCOCC3)nncc2c1	> 10
Cc1ccc(C(=O)NC2CC2)cc1-c1ccc2c(N3CCOCC3)nncc2c1	> 10
Cc1ccc(C(=O)NC2CC2)cc1-c1ccc2c(O[C@@H](C)C(F)(F)F)nncc2c1	> 10

System: not listed separately
Test: Inhibition of PDGFR
Conditions: not given

Compound	IC50 [µM]
Cc1ccc(C(=O)NC2CC2)cc1-c1ccc2c(O[C@@H](C)C(F)(F)F)nncc2c1	0.088

System: THP-1
Test: Inhibition of LPS-induced TNFalpha production in human THP1 cells
Assay type: functional, cell-based
Conditions: not given

Compound	IC50 [µM]
Cc1ccc(C(=O)NC2CC2)cc1-c1ccc2c(OC(C)C)nncc2c1	0.0004
Cc1ccc(C(=O)NC2CC2)cc1-c1ccc2c(-c3ccccc3)nncc2c1	0.0008
Cc1ccc(C(=O)NC2CC2)cc1-c1ccc2c(NCCN3CCOCC3)nncc2c1	0.0249
Cc1ccc(C(=O)NC2CC2)cc1-c1ccc2c(N3CCOCC3)nncc2c1	0.0007
Cc1ccc(C(=O)NC2CC2)cc1-c1ccc2c(O[C@@H](C)C(F)(F)F)nncc2c1	0.0004

System: Blood
Test: Inhibition of TNF-alpha-induced IL8 production in human whole blood cells
Assay type: functional, cell-based
Conditions: not given

Compound	IC50 [µM]
Cc1ccc(C(=O)NC2CC2)cc1-c1ccc2c(OC(C)C)nncc2c1	0.0016
Cc1ccc(C(=O)NC2CC2)cc1-c1ccc2c(-c3ccccc3)nncc2c1	0.0035
Cc1ccc(C(=O)NC2CC2)cc1-c1ccc2c(NCCN3CCOCC3)nncc2c1	0.0043
Cc1ccc(C(=O)NC2CC2)cc1-c1ccc2c(N3CCOCC3)nncc2c1	0.0009
Cc1ccc(C(=O)NC2CC2)cc1-c1ccc2c(O[C@@H](C)C(F)(F)F)nncc2c1	0.0027

System: not listed separately
Test: Permeability from apical to basolateral side of human Caco-2 cells
Assay type: ADME, cell-based
Conditions: not given

Compound	Papp A→B [nm/s]
Cc1ccc(C(=O)NC2CC2)cc1-c1ccc2c(NCCN3CCOCC3)nncc2c1	3
Cc1ccc(C(=O)NC2CC2)cc1-c1ccc2c(N3CCOCC3)nncc2c1	105

System: not listed separately
Test: Permeability from basolateral to apical side of human Caco-2 cells
Assay type: ADME, cell-based
Conditions: not given

Compound	Papp B→A [nm/s]
Cc1ccc(C(=O)NC2CC2)cc1-c1ccc2c(NCCN3CCOCC3)nncc2c1	310
Cc1ccc(C(=O)NC2CC2)cc1-c1ccc2c(N3CCOCC3)nncc2c1	398

System: not listed separately
Test: Clearance in Sprague-Dawley rat 2 mg/kg, iv
Assay type: ADME, organism-based
Parameters: dose 2 mg/kg, route intravenous
Conditions: in vivo

Compound	clearance [L/h/kg]
Cc1ccc(C(=O)NC2CC2)cc1-c1ccc2c(OC(C)C)nncc2c1	0.8
Cc1ccc(C(=O)NC2CC2)cc1-c1ccc2c(NCCN3CCOCC3)nncc2c1	1.2
Cc1ccc(C(=O)NC2CC2)cc1-c1ccc2c(O[C@@H](C)C(F)(F)F)nncc2c1	0.35

System: not listed separately
Test: Volume of distribution at steady state in Sprague-Dawley rat 2 mg/kg, iv
Assay type: ADME, organism-based
Parameters: dose 2 mg/kg, route intravenous
Conditions: in vivo, read-out: Vdss

Compound	Vd [L/kg]
Cc1ccc(C(=O)NC2CC2)cc1-c1ccc2c(OC(C)C)nncc2c1	2.1
Cc1ccc(C(=O)NC2CC2)cc1-c1ccc2c(NCCN3CCOCC3)nncc2c1	2.8
Cc1ccc(C(=O)NC2CC2)cc1-c1ccc2c(O[C@@H](C)C(F)(F)F)nncc2c1	4.7

System: not listed separately
Test: Half life in Sprague-Dawley rat 2 mg/kg, iv
Assay type: ADME, organism-based
Parameters: dose 2 mg/kg, route intravenous
Conditions: in vivo

Compound	half-life [h]
Cc1ccc(C(=O)NC2CC2)cc1-c1ccc2c(OC(C)C)nncc2c1	1.8
Cc1ccc(C(=O)NC2CC2)cc1-c1ccc2c(NCCN3CCOCC3)nncc2c1	2.3
Cc1ccc(C(=O)NC2CC2)cc1-c1ccc2c(O[C@@H](C)C(F)(F)F)nncc2c1	9.9

System: not listed separately
Test: AUC (0 to infinity) in Sprague-Dawley rat 10 mg/kg, po
Assay type: ADME, organism-based
Parameters: dose 10 mg/kg, route oral, time infinity
Conditions: plasma

Compound	AUC(0-inf) [µg·h/mL]
Cc1ccc(C(=O)NC2CC2)cc1-c1ccc2c(OC(C)C)nncc2c1	10.9
Cc1ccc(C(=O)NC2CC2)cc1-c1ccc2c(NCCN3CCOCC3)nncc2c1	0.039
Cc1ccc(C(=O)NC2CC2)cc1-c1ccc2c(O[C@@H](C)C(F)(F)F)nncc2c1	21.1

System: not listed separately
Test: Oral bioavailability in Sprague-Dawley rat 10 mg/kg
Assay type: ADME, organism-based
Conditions: in vivo

Compound	bioavailability [%]
Cc1ccc(C(=O)NC2CC2)cc1-c1ccc2c(OC(C)C)nncc2c1	92
Cc1ccc(C(=O)NC2CC2)cc1-c1ccc2c(NCCN3CCOCC3)nncc2c1	1
Cc1ccc(C(=O)NC2CC2)cc1-c1ccc2c(O[C@@H](C)C(F)(F)F)nncc2c1	72

Species on record: Rattus norvegicus
Test: Inhibition of LPS-induced TNFalpha production in Lewis rat
Assay type: functional
Conditions: not given

Compound	ED50 [mg/kg]
Cc1ccc(C(=O)NC2CC2)cc1-c1ccc2c(O[C@@H](C)C(F)(F)F)nncc2c1	< 0.03

Target: Mitogen-activated protein kinase 14 (Homo sapiens, UniProt Q16539)
Conditions: not given

Chain of Mitogen-activated protein kinase 14 (Q16539 whole entry): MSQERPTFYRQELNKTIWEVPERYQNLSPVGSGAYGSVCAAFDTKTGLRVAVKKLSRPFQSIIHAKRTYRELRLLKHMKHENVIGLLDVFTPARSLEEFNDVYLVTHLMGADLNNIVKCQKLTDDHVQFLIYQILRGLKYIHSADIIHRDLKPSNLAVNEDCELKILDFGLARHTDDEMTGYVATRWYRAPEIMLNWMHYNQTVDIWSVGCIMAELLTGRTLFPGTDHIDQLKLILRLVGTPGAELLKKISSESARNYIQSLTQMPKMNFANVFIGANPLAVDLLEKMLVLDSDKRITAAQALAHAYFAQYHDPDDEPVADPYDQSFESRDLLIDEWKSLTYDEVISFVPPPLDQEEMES

Compound	IC50 [µM]
Cc1ccc(C(=O)NC2CC2)cc1-c1ccc2c(OC(C)C)nncc2c1	0.0006
Cc1ccc(C(=O)NC2CC2)cc1-c1ccc2c(-c3ccccc3)nncc2c1	0.002
Cc1ccc(C(=O)NC2CC2)cc1-c1ccc2c(NCCN3CCOCC3)nncc2c1	0.0019
Cc1ccc(C(=O)NC2CC2)cc1-c1ccc2c(N3CCOCC3)nncc2c1	0.0012
Cc1ccc(C(=O)NC2CC2)cc1-c1ccc2c(O[C@@H](C)C(F)(F)F)nncc2c1	0.001

Target: Vascular endothelial growth factor receptor 2 (Homo sapiens, UniProt P35968)
Conditions: not given

Chain of Vascular endothelial growth factor receptor 2 (P35968 whole entry): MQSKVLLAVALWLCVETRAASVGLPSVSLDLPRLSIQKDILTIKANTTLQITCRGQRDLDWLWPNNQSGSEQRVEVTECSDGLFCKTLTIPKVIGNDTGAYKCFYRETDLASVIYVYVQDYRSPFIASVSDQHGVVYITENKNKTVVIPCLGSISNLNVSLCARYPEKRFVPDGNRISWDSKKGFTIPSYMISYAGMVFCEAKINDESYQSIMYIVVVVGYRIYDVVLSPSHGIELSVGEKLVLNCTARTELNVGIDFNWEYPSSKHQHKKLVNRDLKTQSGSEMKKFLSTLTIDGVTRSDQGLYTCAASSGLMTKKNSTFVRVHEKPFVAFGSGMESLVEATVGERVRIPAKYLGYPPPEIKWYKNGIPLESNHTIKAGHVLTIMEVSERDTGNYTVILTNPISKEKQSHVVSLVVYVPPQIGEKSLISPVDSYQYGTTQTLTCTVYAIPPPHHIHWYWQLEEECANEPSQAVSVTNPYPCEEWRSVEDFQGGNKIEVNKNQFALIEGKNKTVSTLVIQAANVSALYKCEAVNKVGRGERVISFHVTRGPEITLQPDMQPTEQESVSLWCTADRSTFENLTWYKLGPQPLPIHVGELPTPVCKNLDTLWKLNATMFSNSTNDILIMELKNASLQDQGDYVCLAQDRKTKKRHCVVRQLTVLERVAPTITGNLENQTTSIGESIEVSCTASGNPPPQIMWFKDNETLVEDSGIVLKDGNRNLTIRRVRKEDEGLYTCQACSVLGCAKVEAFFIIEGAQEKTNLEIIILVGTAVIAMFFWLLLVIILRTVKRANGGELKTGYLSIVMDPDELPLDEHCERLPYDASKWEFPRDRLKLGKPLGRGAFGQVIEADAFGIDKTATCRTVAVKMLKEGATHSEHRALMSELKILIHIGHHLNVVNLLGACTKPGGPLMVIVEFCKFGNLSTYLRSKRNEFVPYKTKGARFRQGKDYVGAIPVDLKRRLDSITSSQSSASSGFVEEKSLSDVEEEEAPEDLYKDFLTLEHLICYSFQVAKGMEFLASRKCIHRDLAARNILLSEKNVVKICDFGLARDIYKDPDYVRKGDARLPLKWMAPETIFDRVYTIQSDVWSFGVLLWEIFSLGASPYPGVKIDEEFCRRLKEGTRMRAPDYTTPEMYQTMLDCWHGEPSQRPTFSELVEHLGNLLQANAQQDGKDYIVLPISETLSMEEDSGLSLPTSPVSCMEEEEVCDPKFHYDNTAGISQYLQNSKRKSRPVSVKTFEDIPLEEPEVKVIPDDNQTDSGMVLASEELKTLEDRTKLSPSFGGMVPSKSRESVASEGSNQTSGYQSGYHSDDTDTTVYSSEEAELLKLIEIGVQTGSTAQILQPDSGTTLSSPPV

Compound	IC50 [µM]
Cc1ccc(C(=O)NC2CC2)cc1-c1ccc2c(OC(C)C)nncc2c1	1.14
Cc1ccc(C(=O)NC2CC2)cc1-c1ccc2c(-c3ccccc3)nncc2c1	6.29
Cc1ccc(C(=O)NC2CC2)cc1-c1ccc2c(NCCN3CCOCC3)nncc2c1	5.14
Cc1ccc(C(=O)NC2CC2)cc1-c1ccc2c(N3CCOCC3)nncc2c1	3.04
Cc1ccc(C(=O)NC2CC2)cc1-c1ccc2c(O[C@@H](C)C(F)(F)F)nncc2c1	2.68

Target: Tyrosine-protein kinase Lck (Homo sapiens, UniProt P06239)
Conditions: not given

Chain of Tyrosine-protein kinase Lck (P06239 whole entry): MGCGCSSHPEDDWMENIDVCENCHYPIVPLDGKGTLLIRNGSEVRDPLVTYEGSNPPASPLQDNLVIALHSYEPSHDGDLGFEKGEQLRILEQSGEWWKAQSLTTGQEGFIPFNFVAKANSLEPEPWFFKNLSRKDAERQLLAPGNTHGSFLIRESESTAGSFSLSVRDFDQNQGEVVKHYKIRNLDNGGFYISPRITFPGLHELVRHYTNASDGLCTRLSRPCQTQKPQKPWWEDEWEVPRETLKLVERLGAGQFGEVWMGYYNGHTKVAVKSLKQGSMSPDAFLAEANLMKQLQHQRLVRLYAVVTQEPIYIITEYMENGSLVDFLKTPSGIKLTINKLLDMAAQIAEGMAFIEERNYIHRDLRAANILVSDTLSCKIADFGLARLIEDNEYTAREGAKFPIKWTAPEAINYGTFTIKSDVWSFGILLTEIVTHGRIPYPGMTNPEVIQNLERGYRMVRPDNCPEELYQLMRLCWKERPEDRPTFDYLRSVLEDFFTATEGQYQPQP

Compound	IC50 [µM]
Cc1ccc(C(=O)NC2CC2)cc1-c1ccc2c(OC(C)C)nncc2c1	3.61
Cc1ccc(C(=O)NC2CC2)cc1-c1ccc2c(-c3ccccc3)nncc2c1	1.34
Cc1ccc(C(=O)NC2CC2)cc1-c1ccc2c(NCCN3CCOCC3)nncc2c1	> 10
Cc1ccc(C(=O)NC2CC2)cc1-c1ccc2c(N3CCOCC3)nncc2c1	3.81
Cc1ccc(C(=O)NC2CC2)cc1-c1ccc2c(O[C@@H](C)C(F)(F)F)nncc2c1	> 5

Reference: ChEMBL document CHEMBL1140163 (J Med Chem, 2008)
